# Data from patent US20090105119A1, “ASPARAGINE-10-SUBSTITUTED NONADEPSIPEPTIDES” (priority 2006, published 2009).
# Like-named read-outs stand apart in the source and are kept apart here. *1 amine or outer side, *2 acyl side, *3 side chain or, on linkers, in order; H or OH if unused. Where a SMILES comes first, the peptide text is derived from it. Bridges are numbered along the chain shown (N, C = ends). [ ]: non-standard residue; d: D form. Phe(3R-OH) = O=C([C@@H](N[*:1])[C@H](O[*:3])c1ccccc1)[*:2]; X7 = O=C(NCc1ccccc1)[C@@H](O)[C@H](N[*:1])C(=O)[*:2]; X2 = O=C(NCCO)[C@@H](O)[C@H](N[*:1])C(=O)[*:2]; X1 = CNC(=O)[C@@H](O)[C@H](N[*:1])C(=O)[*:2]; Leu(3R-OH) = CC(C)[C@@H](O)[C@H](N)C(=O)O; aThr = C[C@H](O)[C@H](N)C(=O)O
# Assays:
# [1] = Determination of the free fraction (fu) in plasma; assay type: in vitro ADME, rat; settings: pH 7.4
# Experimental: (§1) Principle of the Determination of the Free Fraction Via Transil:
# (§2) The method described here for determining the free fraction (fu) of a test substance is divided into 2 parts:
# (§3) a) Determination of the Transil®/buffer distribution ratio (MAbuffer) by incubating the test substance in a Transil®-buffer (pH 7.4) dispersion and subsequently determining the concentration in the dispersion and in the buffer supernatant.
# (§4) b) Determination of the Transil®/plasma distribution ratio (MAplasma) by incubating the test substance in a Transil®-plasma dispersion and subsequently determining the concentration in the dispersion and in the plasma.
# (§5) The quotient of the two distribution ratios yields fu.
# (§6) In the case of highly protein-bound substances, the plasma is usually diluted with isotonic phosphate buffer (pH 7.4) and then suspended with Transil®. The determination of fu′ (free fraction in diluted plasma) in this diluted protein solution takes place in analogy to the determination of fu. The free fraction in undiluted plasma is calculated from fu′ and the dilution factor.
# (§7) Concerning this method, compare also: Schuhmacher, Joachim; Kohlsdorfer, Christian; Buehner, Klaus; Brandenburger, Tim; Kruk, Renate, “High-throughput determination of the free fraction of drugs strongly bound to plasma proteins.” Journal of Pharmaceutical Sciences 2004, 93, 816-830.
# (§8) Determination of the Membrane Affinity of a Test Substance after Distribution Between Transil® and Buffer (MAbuffer):
# (§9) All incubations are carried out in suitable glass vessels, e.g. glass vials, ground-socket test tubes. In general the total volume is 0.5-5 ml, and the Transil® volume 10-100 μl. In cases where the membrane affinities are expected to be high, the Transil® dispersion can be diluted up to 20-fold with phosphate buffer of pH 7.4, e.g. Dulbecco's PBS. Phosphate buffer of pH 7.4 is provided in the incubation vessels, and the Transil® is pipetted in, after thorough mixing. The test substance is pipetted in at a concentration of, for example, 200 ng/mL, n=6. The proportion of organic solvent should be <2%. The mixtures are incubated at room temperature for 30 min, e.g. on a mini-shaker at an angle of about 45°, at about 400 rpm. In order to determine the 100% value at least one aliquot of, for example, 100 μl, is removed and the remaining mixture is centrifuged at about 1800 g for about 10 min. At least 2 aliquots (e.g. 100 μl) of the supernatant are removed from each sample for the determination of the concentration.
# (§10) Determination of MAplasma in Undiluted or Diluted Plasma:
# (§11) The total incubation volume and the added volume of Transil® depend on the expected free fraction. In general the total volume is 0.5-1 ml, and the Transil® volume is 10-100 μl. In cases where the free fractions are very low, the plasma of the species to be investigated is diluted, with isotonic buffer solution, pH 7.4, e.g. 10-400-fold, and the Transil® is then added. The subsequent procedure takes place as described above for the determination of the MAbuffer values. […]
# (§12) The plasma of the species to be investigated is filtered through a semipermeable membrane. The substance concentration in the filtrate is measured and the free fraction fu is calculated therefrom. […] The substance concentration in the ultrafiltrate (Cu; unbound substance concentration) and in the plasma before centrifugation (C; total substance concentration) is measured. The free fraction is calculated by the formula: fu (%)=Cu/C*100.
# [2] = tested on: Staphylococcus aureus 133; assay type: cell-based; settings: Isosensitest medium, 10^5 microbes per ml, 37° C., 18-24 hours
# Experimental: (§13) Determination of the Minimum Inhibitory Concentration (MIC):
# (§14) The MIC is determined in the liquid dilution test in accordance with the NCCLS guidelines. Overnight cultures of Staphylococcus aureus 133, Enterococcus faecalis 27159, E. faecium 4147 and Streptococcus pneumoniae G9a are incubated with the described test substances in a 1:2 dilution series. The MIC determination is carried out with a cell count of 10^5 microbes per ml in Isosensitest medium (Difco, Irvine/USA), with the exception of S. pneumoniae which is tested in BHI broth (Difco, Irvine/USA) with 10% bovine serum with a cell count of 10^6 microbes per ml. The cultures are incubated at 37° C. for 18-24 hours, S. pneumoniae in the presence of 10% CO2.
# (§15) The MIC is defined as the lowest concentration of each substance at which no visible bacterial growth occurs any longer. The MIC values are reported in μg/ml.
# [3] = tested on: Streptococcus pneumoniae G9a; assay type: cell-based; settings: BHI broth with 10% bovine serum, 10^6 microbes per ml, 10% CO2, 37° C., 18-24 hours
# Experimental: as §13, §14, §15
# E. faecalis ICB 27159 = assay type: cell-based, Enterococcus faecalis; settings: Isosensitest medium, 10^5 microbes per ml, 37° C., 18-24 hours
# Experimental: as §13, §14, §15
# [4] = Determination of the free fraction (fu) in plasma; assay type: in vitro ADME; settings: human
# Experimental: as §1, §2, §3, §4, §5, §6, §7, §8, §9, §10, §11, §12
# [5] = rat plasma, read-out: Free fraction (rat plasma)
# [6] = read-out: Free fraction (human plasma)
"fraction unbound at 30 min, 200 ng/mL ([1]; rat, plasma)",fraction unbound at 30 min [4],Compound,"fraction unbound at 30 min, 200 ng/mL [1, 5]",MIC S. aureus 133 [2] [µg/mL],MIC S. pneumoniae G9a [3] [µg/mL],MIC E. faecalis ICB 27159 (E. faecalis ICB 27159) [µg/mL],"fraction unbound at 30 min [4, 6]"
,,"CC[C@H](C)[C@@H]1NC(=O)[C@@H](CCCNC(=N)N)NC(=O)[C@H](CC(C)C)NC(=O)[C@H]([C@H](O)C(C)C)NC(=O)[C@@H](NC(=O)[C@H](CC(C)C)NC(=O)[C@H](N)CC(C)C)[C@@H](c2ccccc2)OC(=O)[C@H](CO)NC(=O)[C@H]([C@H](O)C(=O)NCCO)NC(=O)CNC(=O)[C@H]([C@H](C)O)NC1=O [Example 2, N^4.10-(2-Hydroxyethyl)-D-leucyl-L-leucyl-[(3R)-3-hydroxy-L-phenylalanyl]-[(3R)-3-hydroxy-L-leucyl]-L-leucyl-D-arginyl-L-isoleucyl-L-allothreonylglycyl-[(3S)-3-hydroxy-L-asparaginyl]-L-serine C^1.11—O^3.3-lactone Bistrifluoroacetate] (H-[dL]L[Phe(3R-OH)][Leu(3R-OH)]L[dR]I[aThr]G[X2]S; ester 3-C)",0.137,1,2,16,0.099
,,"CC[C@H](C)[C@@H]1NC(=O)[C@@H](CCCNC(=N)N)NC(=O)[C@H](CC(C)C)NC(=O)[C@H]([C@H](O)C(C)C)NC(=O)[C@@H](NC(=O)[C@H](CC(C)C)NC(=O)[C@H](N)CC(C)C)[C@@H](c2ccccc2)OC(=O)[C@H](CO)NC(=O)[C@H]([C@H](O)C(=O)NC)NC(=O)CNC(=O)[C@H]([C@H](C)O)NC1=O [Example 3, N^4.10-Methyl-D-leucyl-L-leucyl-[(3R)-3-hydroxy-L-phenylalanyl]-[(3R)-3-hydroxy-L-leucyl]-L-leucyl-D-arginyl-L-isoleucyl-L-allothreonylglycyl-[(3S)-3-hydroxy-L-asparaginyl]-L-serine C^1.11—O^3.3-lactone Bistrifluoroacetate] (H-[dL]L[Phe(3R-OH)][Leu(3R-OH)]L[dR]I[aThr]G[X1]S; ester 3-C)",0.129,0.25,0.5,2,0.051
0.07,0.026,"CC[C@H](C)[C@@H]1NC(=O)[C@@H](CCCNC(=N)N)NC(=O)[C@H](CC(C)C)NC(=O)[C@H]([C@H](O)C(C)C)NC(=O)[C@@H](NC(=O)[C@H](CC(C)C)NC(=O)[C@H](N)CC(C)C)[C@@H](c2ccccc2)OC(=O)[C@H](CO)NC(=O)[C@H]([C@H](O)C(=O)NCc2ccccc2)NC(=O)CNC(=O)[C@H]([C@H](C)O)NC1=O [Example 6, N^4.10-Benzyl-D-leucyl-L-leucyl-[(3R)-3-hydroxy-L-phenylalanyl]-[(3R)-3-hydroxy-L-leucyl]-L-leucyl-D-arginyl-L-isoleucyl-L-allothreonylglycyl-[(3S)-3-hydroxy-L-asparaginyl]-L-serine C^1.11—O^3.3-lactone Bistrifluoroacetate] (H-[dL]L[Phe(3R-OH)][Leu(3R-OH)]L[dR]I[aThr]G[X7]S; ester 3-C)",,,,,
